biological target: T1, Full length human recombinant HDAC8 protein (Homo sapiens, UniProt Q9BY41); assay: In vitro histone deacetylase assay: enzymatic HDAC8 assay, electrophoretic mobility shift; type: biochemical; details: substrate RHKK(Ac)-NH2, 1 nM enzyme, compounds listed under IC50 range headings
T1 construct: Full length human recombinant HDAC8 protein was expressed in baculoviral system; made in house
T1 sequence (Q9BY41 1-377): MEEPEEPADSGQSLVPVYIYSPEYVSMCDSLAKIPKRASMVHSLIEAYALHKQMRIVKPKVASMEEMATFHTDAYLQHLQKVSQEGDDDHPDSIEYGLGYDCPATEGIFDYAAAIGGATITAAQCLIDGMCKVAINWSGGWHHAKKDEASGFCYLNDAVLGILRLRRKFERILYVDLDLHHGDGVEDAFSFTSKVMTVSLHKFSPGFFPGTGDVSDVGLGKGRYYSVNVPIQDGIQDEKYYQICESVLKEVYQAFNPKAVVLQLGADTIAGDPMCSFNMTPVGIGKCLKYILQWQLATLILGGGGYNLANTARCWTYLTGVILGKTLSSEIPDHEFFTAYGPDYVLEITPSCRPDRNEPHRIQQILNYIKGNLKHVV
Summary of the method: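 Readout was microfluidic mobility-shift separation of deacetylated product from fluorescent RHKK(Ac)-NH2 substrate (2 µM), after reaction with 1 nM recombinant full-length human HDAC8 at 25 °C, pH 7.5, stopped with SDS. Twelve 3-fold-spaced concentrations tested; product/sum ratios normalized to controls and fitted with a 4-parameter model for IC50.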

O=C(/C=C/c1ccccc1N1CCN(C(=O)Nc2ccc(OC(F)(F)F)cc2)CC1=O)NO [Example I-528, (E)-4-(2-(3-(hydroxyamino)-3-oxoprop-1-en-1-yl)phenyl)-3-oxo-N-(4-(trifluoromethoxy)phenyl)piperazine-1-carboxamide] and O=C(/C=C/c1ccccc1N1CCN(c2ccccc2)C1=O)NO [Example I-302, (E)-N-hydroxy-3-(2-(2-oxo-3-phenylimidazolidin-1-yl)phenyl)acrylamide] cannot be ordered by IC50: less than 1 µM for the first, less than 1 µM for the second.

First: O=C(/C=C/c1ccccc1C(=O)N1C2CCC1CC2)NO [II-12, (E)-3-(2-(7-azabicyclo[2.2.1]heptane-7-carbonyl)phenyl)-N-hydroxyacrylamide]
Second: O=C(/C=C/c1ccccc1NC(=O)C1CCCCC1)NO [Example I-56, (E)-N-(2-(3-(hydroxyamino)-3-oxoprop-1-en-1-yl)phenyl)cyclohexanecarboxamide]
The IC50 of the first is higher: 1 to 10 µM for the first, less than 1 µM for the second.

O=C(/C=C/c1ccccc1NCc1ccc(-c2ccccn2)cc1)NO [Example I-92, (E)-N-hydroxy-3-(2-((4-(pyridin-2-yl)benzyl)amino)phenyl)acrylamide] and Cc1ccc(Sc2ncccc2C(=O)Nc2ccccc2/C=C/C(=O)NO)cc1 [Example I-280, (E)-N-(2-(3-(hydroxyamino)-3-oxoprop-1-en-1-yl)phenyl)-2-(p-tolylthio)nicotinamide] cannot be ordered by IC50: less than 1 µM for the first, less than 1 µM for the second.

O=C(/C=C/c1ccccc1N1CCN(Cc2ccc3c(c2)OC(F)(F)O3)CC1)NO [Example I-173, (E)-3-(2-(4-((2,2-difluorobenzo[d][1,3]dioxol-5-yl)methyl)piperazin-1-yl)phenyl)-N-hydroxyacrylamide] and O=C(/C=C/c1ccccc1N1CCN(Cc2ccc(F)cc2)CC1)NO [Example I-163, (E)-3-(2-(4-(4-fluorobenzyl)piperazin-1-yl)phenyl)-N-hydroxyacrylamide] cannot be ordered by IC50: less than 1 µM for the first, less than 1 µM for the second.

CC(C)(C)OC(=O)NC1CCN(c2ccccc2/C=C/C(=O)NO)C1 (centres unmarked) [Example I-301, tert-butyl (E)-(1-(2-(3-(hydroxyamino)-3-oxoprop-1-en-1-yl)phenyl)pyrrolidin-3-yl)carbamate] and O=C(/C=C/c1ccccc1N1CCC(NC(=O)c2ccccc2)C1)NO (centres unmarked) [Example I-318, (E)-N-(1-(2-(3-(hydroxyamino)-3-oxoprop-1-en-1-yl)phenyl)pyrrolidin-3-yl)benzamide] cannot be ordered by IC50: less than 1 µM for the first, less than 1 µM for the second.

O=C(/C=C/c1ccccc1N1CCC(NS(=O)(=O)c2cccnc2)CC1)NO [Example I-221, (E)-N-hydroxy-3-(2-(4-(pyridine-3-sulfonamido)piperidin-1-yl)phenyl)acrylamide] and O=C(/C=C/c1ccccc1N1CCC(NS(=O)(=O)c2ccc(C(F)(F)F)nc2)CC1)NO [Example I-226, (E)-N-hydroxy-3-(2-(4-((6-(trifluoromethyl)pyridine)-3-sulfonamido)piperidin-1-yl)phenyl)acrylamide] cannot be ordered by IC50: less than 1 µM for the first, less than 1 µM for the second.

O=C(/C=C/c1ccccc1N1CCN(C(=O)C2(c3ccccc3)CC2)CC1)NO [Example I-36, (E)-N-hydroxy-3-(2-(4-(1-phenylcyclopropane-1-carbonyl)piperazin-1-yl)phenyl)acrylamide] and O=C(/C=C/c1ccccc1N1CCN(C(=O)C2(c3ccccc3)CCC2)CC1)NO [Example I-37, (E)-N-hydroxy-3-(2-(4-(1-phenylcyclobutane-1-carbonyl)piperazin-1-yl)phenyl)acrylamide] fall in the same range of IC50: 1 to 10 µM for the first, 1 to 10 µM for the second.

Compared with COc1ccc(OC)c(S(=O)(=O)N2CCN(c3ccccc3/C=C/C(=O)NO)CC2)c1 [Example I-34], COc1ccc(S(=O)(=O)NC2CCN(c3ccccc3/C=C/C(=O)NO)CC2)cc1OC [Example I-233] is lower in IC50: 1 to 10 µM for the first, less than 1 µM for the second. The second is the more potent here.

Cn1c(CNc2ccccc2/C=C/C(=O)NO)nc(Cl)c1Cl [Example I-121, (E)-3-(2-(((4,5-dichloro-1-methyl-1H-imidazol-2-yl)methyl)amino)phenyl)-N-hyroxyacrylamide] and CC(C)Nc1ncc(CNc2ccccc2/C=C/C(=O)NO)cn1 [Example I-105, (E)-N-hydroxy-3-(2-(((2-(isopropylamino)pyrimidin-5-yl)methyl)amino)phenyl)acrylamide] cannot be ordered by IC50: less than 1 µM for the first, less than 1 µM for the second.

Compared with CC(C)(C)OC(=O)N1CCC2(CCC(C(=O)Nc3ccccc3/C=C/C(=O)NO)CC2)CC1 [Example I-47, tert-butyl-(E)-9-((2-(3-(hydroxyamino)-3-oxoprop-1-en-1-yl)phenyl)carbamoyl)-3-azaspiro[5.4]undecane-3-carboxylate], COCC1(C(=O)N2CCN(c3ccccc3/C=C/C(=O)NO)CC2)CCC1 [Example I-21, (E)-N-hydroxy-3-(2-(4-(1-(methoxymethyl)cyclobu-tane-1-carbonyl)piperazin-1-yl)phenyl)acrylamide] is higher in IC50: less than 1 µM for the first, 1 to 10 µM for the second. The first is the more potent here.

O=C(/C=C/c1ccccc1N1CCN(Cc2cccc(C(F)(F)F)c2)CC1)NO [Example I-171, (E)-N-hydroxy-3-(2-(4-(3-(trifluoromethyl)benzyl)piperazin-1-yl)phenyl)acrylamide] and CC(C)N(Cc1cccc(C(F)(F)F)c1)c1ccccc1/C=C/C(=O)NO [Example I-216, (E)-N-hydroxy-3-(2-(isopropyl(3-(trifluoromethyl)benzyl)amino)phenyl)acrylamide] cannot be ordered by IC50: less than 1 µM for the first, less than 1 µM for the second.

Compared with O=C(/C=C/c1ccccc1N1CCN(S(=O)(=O)Cc2ccc(Cl)cc2F)CC1)NO [Example I-259, (E)-3-(2-(4-((4-chloro-2-fluorobenzyl)sulfonyl)pi-perazin-1-yl)phenyl)-N-hydroxyacrylamide], O=C(/C=C/c1ccccc1N1CCN(S(=O)(=O)c2ccc3c(c2)OCCO3)CC1)NO [Example I-28, (E)-3-(2-(4-((2,3-dihydrobenzo[b][1,4]di-oxin-6-yl)sulfonyl)piperazin-1-yl)phenyl)-N-hydroxyacrylamide] is higher in IC50: less than 1 µM for the first, 1 to 10 µM for the second.

O=C(/C=C/c1ccccc1N1CCC(NC(=O)c2cc3ccccc3[nH]2)CC1)NO [Example I-155] and O=C(/C=C/c1ccccc1N1CCC(NC(=O)C2Cc3ccccc3C2)CC1)NO [Example I-140, (E)-N-(1-(2-(3-(hydroxyamino)-3-oxoprop-1-en-1-yl)phenyl)piperidin-4-yl)-2,3-dihydro-1H-indene-2-carboxamide] cannot be ordered by IC50: less than 1 µM for the first, less than 1 µM for the second.

First: CSc1ccc(CC(=O)NC2CCN(c3ccccc3/C=C/C(=O)NO)CC2)cc1 [Example I-156]
Second: O=C(/C=C/c1ccccc1N1CCC(NC(=O)Cc2ccc(Cl)cc2)CC1)NO [Example I-13, (E)-3-(2-(4-(2-(4-chlorophenyl)acetamido)piperidin-1-yl)phenyl)-N-hydroxyacrylamide]
The IC50 of the first is lower: less than 1 µM for the first, 1 to 10 µM for the second. The first is the more potent here.

First: O=C(/C=C/c1ccccc1C(=O)N1CCC2(CC1)OCc1ccccc12)NO [II-9, (E)-3-(2-(3H-spiro[isobenzofuran-1,4′-piperidine]-1′-carbonyl)phenyl)-N-hydroxyacrylamide]
Second: O=C(/C=C/c1ccccc1NC(=O)C(c1ccccc1)C1CCCC1)NO (centres unmarked) [Example I-279, (E)-3-(2-(2-cyclopentyl-2-phenylacetamido)phenyl)-N-hydroxyacrylamide]
The IC50 of the first is higher: 1 to 10 µM for the first, less than 1 µM for the second. The second is the more potent here.

O=C(/C=C/c1ccccc1N1CCN(Cc2cc3c(cc2Cl)OCO3)CC1)NO [Example I-175, (E)-3-(2-(4-((6-chlorobenzo[d][1,3]dioxol-5-yl)methyl)piperazin-1-yl)phenyl)-N-hydroxyacrylamide] and Cc1noc(C)c1S(=O)(=O)N1CCN(c2ccccc2/C=C/C(=O)NO)CC1 [Example I-245, (E)-3-(2-(4-((3,5-dimethylisoxazol-4-yl)sulfonyl)piperazin-1-yl)phenyl)-N-hydroxyacrylamide] cannot be ordered by IC50: less than 1 µM for the first, less than 1 µM for the second.

CS(=O)(=O)CCCC(=O)N1CCN(c2ccccc2/C=C/C(=O)NO)CC1 [Example I-201, (E)-N-hydroxy-3-(2-(4-(4-(methylsulfonyl)butanoyl)piperazin-1-yl)phenyl)acrylamide] and O=C(/C=C/c1ccccc1N1CCN(C(=O)Cc2ccccn2)CC1)NO [Example I-296, (E)-N-hydroxy-3-(2-(4-(2-(pyridin-2-yl)acetyl)piperazin-1-yl)phenyl)acrylamide] cannot be ordered by IC50: less than 1 µM for the first, less than 1 µM for the second.

Cc1nn(C)c(Cl)c1S(=O)(=O)NC1CCN(c2ccccc2/C=C/C(=O)NO)CC1 [Example I-218, (E)-3-(2-(4-((5-chloro-1,3-dimethyl-1H-pyrazole)-4-sulfonamido)piperidin-1-yl)phenyl)-N-hydroxyacrylamide] and O=C(/C=C/c1ccccc1N1CC2(CC(NC(=O)OCc3ccccc3)CS2(=O)=O)C1)NO (centres unmarked) [Example I-114, benzyl (E)-(2-(2-(3-(hydroxyamino)-3-oxoprop-1-en-1-yl)phenyl)-5,5-dioxido-5-thia-2-azaspiro[3,4]octan-7-yl)carbamate] cannot be ordered by IC50: less than 1 µM for the first, less than 1 µM for the second.

First: COCCn1c(Nc2ccccc2/C=C/C(=O)NO)nc2ccccc21 [Example I-3, (E)-N-hydroxy-3-(2-((1-(2-methoxyethyl)-1H-benzo[d]imidazol-2-yl)amino)phenyl)acrylamide]
Second: O=C(/C=C/c1ccccc1NC(=O)c1ccnc(N2CCOCC2)c1)NO [Example I-305, (E)-N-(2-(3-(hydroxyamino)-3-oxoprop-1-en-1-yl)phenyl)-2-morpholinoisonicotinamide]
The IC50 of the first is higher: 1 to 10 µM for the first, less than 1 µM for the second. The second is the more potent here.
